From the supplement of paper PMC10307832

Tests used:
Assay in all cases: relative viability (nuclei count vs DMSO), 5 days (fraction); higher = more cells survive
Afatinib + Bortezomib = compound: CN(C)C/C=C/C(=O)Nc1cc2c(Nc3ccc(F)c(Cl)c3)ncnc2cc1O[C@H]1CCOC1 [Afatinib] + CC(C)C[C@H](NC(=O)[C@H](Cc1ccccc1)NC(=O)c1cnccn1)B(O)O [Bortezomib] (partner 0.002 µM)
Outline: (§1)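 Values are medians from duplicate plates. Each reflects relative viability, defined as the nuclei count of treated wells over that of vehicle wells. Lung cancer cell lines in 1536-well plates were pin-tool dosed one day after seeding with one drug alone or with a fixed anchor-drug dose plus five library-drug doses (not always all listed) in √10 steps, then fixed, stained and imaged at 4× after 5 days.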

Afatinib + Lapatinib = compound: CN(C)C/C=C/C(=O)Nc1cc2c(Nc3ccc(F)c(Cl)c3)ncnc2cc1O[C@H]1CCOC1 [Afatinib] + CS(=O)(=O)CCNCc1ccc(-c2ccc3ncnc(Nc4ccc(OCc5cccc(F)c5)c(Cl)c4)c3c2)o1 [Lapatinib] (partner 2 µM)
Outline: as §1

Afatinib + AZD7762 = compound: CN(C)C/C=C/C(=O)Nc1cc2c(Nc3ccc(F)c(Cl)c3)ncnc2cc1O[C@H]1CCOC1 [Afatinib] + NC(=O)Nc1cc(-c2cccc(F)c2)sc1C(=O)N[C@H]1CCCNC1 [AZD7762] (partner 0.2 µM)
Outline: as §1

Afatinib + Decitabine = compound: CN(C)C/C=C/C(=O)Nc1cc2c(Nc3ccc(F)c(Cl)c3)ncnc2cc1O[C@H]1CCOC1 [Afatinib] + Nc1ncn([C@H]2C[C@H](O)[C@@H](CO)O2)c(=O)n1 [Decitabine] (partner 2 µM)
Outline: as §1

Row | Cell Line | relative viability (Afatinib + Bortezomib; first compound 0.005 µM) | relative viability (Afatinib + Bortezomib; first compound 0.01581 µM) | relative viability (Afatinib + Bortezomib; first compound 0.05 µM) | relative viability (Afatinib + Bortezomib; first compound 0.1581 µM) | relative viability (Afatinib + Bortezomib; first compound 0.5 µM) | relative viability (Afatinib + Lapatinib; first compound 0.005 µM) | relative viability (Afatinib + Lapatinib; first compound 0.01581 µM) | relative viability (Afatinib + Lapatinib; first compound 0.05 µM) | relative viability (Afatinib + Lapatinib; first compound 0.1581 µM) | relative viability (Afatinib + Lapatinib; first compound 0.5 µM) | relative viability (Afatinib + AZD7762; first compound 0.005 µM) | relative viability (Afatinib + AZD7762; first compound 0.01581 µM) | relative viability (Afatinib + AZD7762; first compound 0.05 µM) | relative viability (Afatinib + AZD7762; first compound 0.1581 µM) | relative viability (Afatinib + AZD7762; first compound 0.5 µM) | relative viability (Afatinib + Decitabine; first compound 0.005 µM) | relative viability (Afatinib + Decitabine; first compound 0.01581 µM) | relative viability (Afatinib + Decitabine; first compound 0.05 µM) | relative viability (Afatinib + Decitabine; first compound 0.1581 µM) | relative viability (Afatinib + Decitabine; first compound 0.5 µM)
1 | NCI-H838 | 0.869 | 0.958 | 1.01 | 0.667 | 1.05 | 0.986 | 0.953 | 1.07 | 1.08 | 1.06 | 0.801 | 0.946 | 0.915 | 0.968 | 0.953 | 0.496 | 0.445 | 0.481 | 0.451 | 0.461
2 | NCI-H1355 | 1.26 | 1.16 | 1.29 | 1.03 | 1.02 | 1.03 | 1.08 | 1 | 0.945 | 1.03 | 0.71 | 0.765 | 0.779 | 0.645 | 0.748 | 0.377 | 0.332 | 0.341 | 0.356 | 0.332
3 | NCI-H1437 | 0.941 | 0.52 | 0.446 | 0.496 | 0.554 | 0.891 | 0.79 | 0.758 | 0.778 | 0.779 | 1.11 | 1.05 | 1.19 | 1.09 | 1.2 | 0.597 | 0.552 | 0.542 | 0.535 | 0.552
4 | NCI-H1651 | 1.08 | 0.912 | 0.926 | 1.02 | 0.884 | 0.925 | 0.841 | 0.763 | 0.834 | 0.803 | 0.396 | 0.361 | 0.424 | 0.421 | 0.451 | 0.558 | 0.57 | 0.6 | 0.576 | 0.585
5 | NCI-H1666 | 0.712 | 0.758 | 0.567 |  | 0.8 | 0.592 | 0.621 | 0.618 |  | 0.834 | 0.824 | 0.776 | 0.824 | 0.608 | 0.76 | 0.702 | 0.67 | 0.642 | 0.562 | 0.657
6 | NCI-H1734 | 1.08 | 0.816 | 0.895 | 0.921 | 0.922 | 1.06 | 1.01 | 1.06 | 1.01 | 1.09 | 0.389 | 0.602 | 0.58 | 0.498 | 0.471 | 0.542 | 0.538 | 0.47 | 0.491 | 0.489
7 | NCI-H1755 | 0.995 | 0.925 | 0.927 | 0.934 | 1.03 | 1.11 | 1.03 | 1.09 | 1.04 | 1.07 | 0.359 | 0.562 | 0.528 | 0.398 | 0.417 | 0.725 | 0.693 | 0.728 | 0.695 | 0.661
8 | NCI-H1792 | 0.841 | 0.759 | 0.975 | 0.906 | 0.938 | 0.999 | 0.783 | 0.825 | 0.972 | 0.971 | 0.615 | 0.534 | 0.703 | 0.643 | 0.466 | 0.505 | 0.592 | 0.489 | 0.522 | 0.513
